The record followed here is US12528812B2 (Genentech, Inc., priority 2020, dated 2026).

For assay [1], the target named is T1, recombinant human JAK1 kinase domain protein (Residues 854-1154) (Homo sapiens, UniProt P23458).
T1 construct: human JAK1 kinase domain protein (Residues 854-1154); purchased Proteros Biostructures GmbH (Martinsried, Germany); host or cells: insect cells
Description: JAK1 biochemical assay (LabChip mobility shift, Ki). Conditions: read-out: Biochem JAK1 Ki.

Assay [2] deals with IL-13-stimulated STAT6 phosphorylation in human lung bronchial epithelial BEAS-2B cell line. Put plainly: P-STAT6 BEAS-2B + IL-13 cell assay. It counts as cell-based. The conditions noted are these: Homo sapiens, BEAS-2B, BEAS2B cells, IL13 stimulation; read-out: Cellular JAK1 PSTAT6 BEAS2B + IL13. The method in brief: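 Phospho-STAT6 (Tyr641) was quantified in lysates by MSD electrochemiluminescence after human IL-13 challenge (250 ng/mL stock, 15 min, 37 °C). Before that, BEAS-2B cells cultured 48 h had 1 h compound exposure over 10 concentrations. Percent of control was fitted to a four-parameter logistic model to give IC50.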

Assay [3] deals with Recombinant human JAK2 kinase domain protein (Residues 812-1132) (Homo sapiens, UniProt O60674). Description: JAK2 biochemical assay (LabChip mobility shift, Ki). The conditions noted are these: Biochem JAK2 Ki.
Recombinant human JAK2 kinase domain protein (Residues 812-1132), sequence (O60674 812-1132): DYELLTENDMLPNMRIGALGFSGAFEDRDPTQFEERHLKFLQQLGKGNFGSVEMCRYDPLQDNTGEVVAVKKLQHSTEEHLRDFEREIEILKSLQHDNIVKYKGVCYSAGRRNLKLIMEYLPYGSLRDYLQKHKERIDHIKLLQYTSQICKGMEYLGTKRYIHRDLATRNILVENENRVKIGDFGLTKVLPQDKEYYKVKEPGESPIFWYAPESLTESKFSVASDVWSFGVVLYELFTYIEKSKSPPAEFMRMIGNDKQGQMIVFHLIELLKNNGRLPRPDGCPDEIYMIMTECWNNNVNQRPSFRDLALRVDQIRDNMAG
Description: The in vitro biochemical assays quantify JAK-catalyzed phosphorylation of a synthetic peptide, as detected using a LabChip® EZ Reader II microfluidic mobility shift instrument (PerkinElmer; Waltham, MA). […] Y-1B is fluorescently labeled on the N-terminus with 5-FAM (5-carboxyfluorescein) and contains a single tyrosine residue (Y) that can be phosphorylated by JAK activity. The substrate peptide stock is prepared in DMSO at 5 mM. […] In each titration experiment, test compound was tested in duplicate at each of the twelve concentrations. Blank reactions contained ATP, peptide, and DMSO, but no JAK or test compound, whereas uninhibited control reactions contained ATP, peptide, JAK, and DMSO, but no test compound.
Peptide plus ATP mixture (24 μL) was added to 1 μL of test compound in DMSO (or DMSO alone). The reactions were initiated by adding 25 μL of JAK enzyme to the inhibitor/peptide/ATP mixture before thoroughly mixing the resultant solution. Reactions were incubated at room temperature (22° C.-23° C.) in a final volume of 50 μL per well in 384-well plates. After a 30-minute incubation, the reactions were stopped by adding 25 μL of 150 mM ethylenediaminetetraacetic acid in 100 mM HEPES buffer (pH 7.2) containing 0.015% Brij 35 to each well.
In each reaction, the residual Y-1B substrate and the phospho-peptide product generated were separated using the EZ Reader II instrument. Electrophoretic separation of molecules of product from molecules of substrate was achieved using downstream and upstream voltages of −500 and −2600 V, respectively, at an operating pressure of −1.3 psi.
The extent (or percent) of conversion of substrate to product was calculated from the corresponding peak heights in the electropherogram using HTS Well Analyzer software, Version 5.2 (PerkinElmer), and the following equation (Equation 1): conversion=[P÷(S+P)]×100 Equation 1% where S and P represent the peak heights of the substrate and product, respectively. After any baseline signal from blank wells containing no JAK was subtracted from the signal of all test wells, the % conversion data were converted to fractional activity as shown in Equation 2, where vi and vo are the % conversion in the presence and absence of test compound, respectively.

SMILES strings stand for the structures.

T1 sequence (P23458 854-1154): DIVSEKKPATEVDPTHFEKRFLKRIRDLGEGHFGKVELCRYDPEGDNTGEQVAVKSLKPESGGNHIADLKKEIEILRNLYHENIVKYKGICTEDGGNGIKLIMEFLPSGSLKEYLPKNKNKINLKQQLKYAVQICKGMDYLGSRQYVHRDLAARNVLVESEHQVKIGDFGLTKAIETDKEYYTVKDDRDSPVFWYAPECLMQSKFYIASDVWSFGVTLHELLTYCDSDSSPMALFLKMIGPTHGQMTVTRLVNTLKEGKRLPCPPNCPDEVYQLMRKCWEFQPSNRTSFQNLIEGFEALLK

For the compound `O=C(Nc1c[nH]nc1-c1cc(Oc2cccc(OCC(F)(F)F)c2)ccc1OC(F)F)c1cnn2cccnc12` [Example 4, N-[3-[2-(difluoromethoxy)-5-[3-(2,2,2-trifluoroethoxy)phenoxy]phenyl]-1H-pyrazol-4-yl]pyrazolo[1,5-a]pyrimidine-3-carboxamide], the Ki turned out to be 1.1 nM in assay [1] and 0.7 nM in assay [3]. In addition, the IC50 in assay [2] is 18 nM.

As for `O=C(Nc1c[nH]nc1-c1cc(Oc2ccc(OCC(F)(F)F)cc2)ccc1OC(F)F)c1cnn2cccnc12` [Example 5, N-[3-[2-(difluoromethoxy)-5-[4-(2,2,2-trifluoroethoxy)phenoxy]phenyl]-1H-pyrazol-4-yl]pyrazolo[1,5-a]pyrimidine-3-carboxamide], the values for the Ki in assay [1] and in assay [3] were 1.1 nM and 0.91 nM, respectively. For the same compound, the IC50 in assay [2] turned out to be 18 nM.

As for `NCc1cccc(Oc2ccc(OC(F)F)c(-c3n[nH]cc3NC(=O)c3cnn4cccnc34)c2)c1` [Example 6, N-[3-[5-[3-(aminomethyl)phenoxy]-2-(difluoromethoxy)phenyl]-1H-pyrazol-4-yl]pyrazolo[1,5-a]pyrimidine-3-carboxamide], the inhibitory constant (Ki) in assay [1] turned out to be 0.23 nM; in assay [3], 0.2 nM. Besides, the IC50 in assay [2] was 11 nM.

In the case of `NCc1ccccc1Oc1ccc(OC(F)F)c(-c2n[nH]cc2NC(=O)c2cnn3cccnc23)c1` [Example 7, N-[3-[5-[2-(aminomethyl)phenoxy]-2-(difluoromethoxy)phenyl]-1H-pyrazol-4-yl]pyrazolo[1,5-a]pyrimidine-3-carboxamide], the Ki was 1.5 nM in assay [1] and 1.9 nM in assay [3]. In assay [2], the IC50 worked out at 360 nM.

As for `N#CCc1ccc(Oc2ccc(OC(F)F)c(-c3n[nH]cc3NC(=O)c3cnn4cccnc34)c2)cc1` [Example 8, N-[3-[5-[4-(cyanomethyl)phenoxy]-2-(difluoromethoxy)phenyl]-1H-pyrazol-4-yl]pyrazolo[1,5-a]pyrimidine-3-carboxamide], the Ki is 0.18 nM in assay [1] and 0.14 nM in assay [3]. Also, the IC50 in assay [2] was determined as 7.6 nM.

With `O=C(Nc1c[nH]nc1-c1cc(Oc2cccc(C3CNCCO3)c2)ccc1OC(F)F)c1cnn2cccnc12` (stereo not drawn) [Example 9, N-[3-[2-(difluoromethoxy)-5-(3-morpholin-2-ylphenoxy)phenyl]-1H-pyrazol-4-yl]pyrazolo[1,5-a]pyrimidine-3-carboxamide], the Ki in assay [1] stood at 0.34 nM; in assay [3], 0.36 nM. The IC50 in assay [2] came to 93 nM.

As for `Cc1ccc(Oc2ccc(OC(F)F)c(-c3n[nH]cc3NC(=O)c3cnn4cccnc34)c2)cc1C(=O)N(C)C` [Example 10, N-[3-[2-(difluoromethoxy)-5-[3-(dimethylcarbamoyl)-4-methyl-phenoxy]phenyl]-1H-pyrazol-4-yl]pyrazolo[1,5-a]pyrimidine-3-carboxamide], the values for the Ki in assay [1] and in assay [3] were 0.24 nM and 0.18 nM, respectively. Besides, the IC50 in assay [2] amounted to 42 nM.

`O=C(Nc1c[nH]nc1-c1cc(Oc2cccc(CNC3COC3)c2)ccc1OC(F)F)c1cnn2cccnc12` [Example 11, N-[3-[2-(difluoromethoxy)-5-[3-[(oxetan-3-ylamino)methyl]phenoxy]phenyl]-1H-pyrazol-4-yl]pyrazolo[1,5-a]pyrimidine-3-carboxamide]: the Ki in assay [1] came to 1 nM; in assay [3] it was 0.69 nM. In addition, in assay [2], the IC50 stood at 190 nM.

`N#CCc1cccc(Oc2ccc(OC(F)F)c(-c3n[nH]cc3NC(=O)c3cnn4cccnc34)c2)c1` [Example 12, N-[3-[5-[3-(cyanomethyl)phenoxy]-2-(difluoromethoxy)phenyl]-1H-pyrazol-4-yl]pyrazolo[1,5-a]pyrimidine-3-carboxamide]: the inhibition constant Ki in assay [1] and in assay [3] was 0.21 nM in each case. Besides, in assay [2], the IC50 is 18 nM.

In the case of `Cn1cc(NC(=O)c2cnn3cccnc23)c(-c2cc(Oc3cccc(CN)c3)ccc2OC(F)F)n1` [Example 13, N-[3-[5-[3-(aminomethyl)phenoxy]-2-(difluoromethoxy)phenyl]-1-methyl-pyrazol-4-yl]pyrazolo[1,5-a]pyrimidine-3-carboxamide], the results for the Ki in assay [1] and in assay [3] were 0.21 nM and 0.43 nM, respectively. Also, in assay [2], the IC50 was 13 nM.

In the case of `CC(N)c1cccc(Oc2ccc(OC(F)F)c(-c3n[nH]cc3NC(=O)c3cnn4cccnc34)c2)c1` (stereo not drawn) [Example 14, N-[3-[5-[3-(1-aminoethyl)phenoxy]-2-(difluoromethoxy)phenyl]-1H-pyrazol-4-yl]pyrazolo[1,5-a]pyrimidine-3-carboxamide], the results for the Ki in assay [1] and in assay [3] were 0.25 nM and 0.38 nM, respectively. For the same compound, the IC50 in assay [2] came to 26 nM.

For `CNCc1cccc(Oc2ccc(OC(F)F)c(-c3n[nH]cc3NC(=O)c3cnn4cccnc34)c2)c1` [Example 15, N-[3-[2-(difluoromethoxy)-5-[3-(methylaminomethyl)phenoxy]phenyl]-1H-pyrazol-4-yl]pyrazolo[1,5-a]pyrimidine-3-carboxamide], the Ki was found to be 0.32 nM in assay [1] and 0.4 nM in assay [3]. In addition, the IC50 in assay [2] was 24 nM.

Regarding `O=C(Nc1c[nH]nc1-c1cc(Oc2cccc(CNCCO)c2)ccc1OC(F)F)c1cnn2cccnc12` [Example 16, N-[3-[2-(difluoromethoxy)-5-[3-[(2-hydroxyethylamino)methyl]phenoxy]phenyl]-1H-pyrazol-4-yl]pyrazolo[1,5-a]pyrimidine-3-carboxamide], the results for the Ki in assay [1] and in assay [3] were 0.22 nM and 0.19 nM, respectively. The IC50 in assay [2] is 170 nM.

For `Cc1ccc(Oc2ccc(OC(F)F)c(-c3n[nH]cc3NC(=O)c3cnn4cccnc34)c2)cc1CC(=O)N(C)C` [Example 17, N-[3-[2-(difluoromethoxy)-5-[3-[2-(dimethylamino)-2-oxo-ethyl]-4-methyl-phenoxy]phenyl]-1H-pyrazol-4-yl]pyrazolo[1,5-a]pyrimidine-3-carboxamide], the figures for the Ki in assay [1] and in assay [3] were 0.42 nM and 0.21 nM, respectively. In addition, the IC50 in assay [2] was 26 nM.

Consider `O=C(Nc1c[nH]nc1-c1cc(Oc2ccc3c(c2)CNCC3)ccc1OC(F)F)c1cnn2cccnc12` [Example 18, N-[3-[2-(difluoromethoxy)-5-(1,2,3,4-tetrahydroisoquinolin-7-yloxy)phenyl]-1H-pyrazol-4-yl]pyrazolo[1,5-a]pyrimidine-3-carboxamide], for which the Ki in assay [1] and in assay [3] was 0.17 nM each time. In addition, the IC50 in assay [2] came out at 32 nM.

In the case of `NCc1cc(Oc2ccc(OC(F)F)c(-c3n[nH]cc3NC(=O)c3cnn4cccnc34)c2)ccc1F` [Example 19, N-[3-[5-[3-(aminomethyl)-4-fluoro-phenoxy]-2-(difluoromethoxy)phenyl]-1H-pyrazol-4-yl]pyrazolo[1,5-a]pyrimidine-3-carboxamide], the figures for the Ki in assay [1] and in assay [3] were 0.39 nM and 0.28 nM, respectively. Further, the IC50 in assay [2] was determined as 49 nM.

`Cn1cc(NC(=O)c2cnn3cccnc23)c(-c2cc(Oc3ccc(CN)cc3)ccc2OC(F)F)n1` [Example 20, N-[3-[5-[4-(aminomethyl)phenoxy]-2-(difluoromethoxy)phenyl]-1-methyl-pyrazol-4-yl]pyrazolo[1,5-a]pyrimidine-3-carboxamide]: the Ki amounted to 1.5 nM in assay [1] and 0.59 nM in assay [3]. In assay [2], the IC50 stood at 19 nM.

For the compound `CN(Cc1cccc(Oc2ccc(OC(F)F)c(-c3nn(C)cc3NC(=O)c3cnn4cccnc34)c2)c1)CC(C)(C)C#N` [Example 21, N-[3-[5-[3-[[(2-cyano-2-methyl-propyl)-methyl-amino]methyl]phenoxy]-2-(difluoromethoxy)phenyl]-1-methyl-pyrazol-4-yl]pyrazolo[1,5-a]pyrimidine-3-carboxamide], the Ki is 1.8 nM in assay [1] and 1.3 nM in assay [3]. Also, the IC50 in assay [2] came to 110 nM.

As for `CN(CCO)Cc1cccc(Oc2ccc(OC(F)F)c(-c3nn(C)cc3NC(=O)c3cnn4cccnc34)c2)c1` [Example 22], the Ki in assay [1] amounted to 0.34 nM; in assay [3], 0.31 nM. Also, in assay [2], the IC50 was 22 nM.

Regarding `Cn1cc(NC(=O)c2cnn3cccnc23)c(-c2cc(Oc3cccc(CNCCO)c3)ccc2OC(F)F)n1` [Example 23, N-[3-[2-(difluoromethoxy)-5-[3-[(2-hydroxyethylamino)methyl]phenoxy]phenyl]-1-methyl-pyrazol-4-yl]pyrazolo[1,5-a]pyrimidine-3-carboxamide], the Ki in assay [1] was 0.37 nM; in assay [3] it was 0.35 nM. Further, in assay [2], the IC50 was found to be 24 nM.

As to `NCc1cccc(Oc2ccc(OC(F)F)c(-c3n[nH]cc3NC(=O)c3cnn4cccnc34)c2)c1F` [Example 24, N-[3-[5-[3-(aminomethyl)-2-fluoro-phenoxy]-2-(difluoromethoxy)phenyl]-1H-pyrazol-4-yl]pyrazolo[1,5-a]pyrimidine-3-carboxamide], the Ki in assay [1] was 0.64 nM; in assay [3], 0.56 nM. In addition, the IC50 in assay [2] came out at 22 nM.

As to `Cc1ccc(Oc2ccc(OC(F)F)c(-c3n[nH]cc3NC(=O)c3cnn4cccnc34)c2)cc1` [Example 25, N-[3-[2-(difluoromethoxy)-5-(4-methylphenoxy)phenyl]-1H-pyrazol-4-yl]pyrazolo[1,5-a]pyrimidine-3-carboxamide], the figures for the Ki in assay [1] and in assay [3] were 0.39 nM and 0.14 nM, respectively. For the same compound, in assay [2], the IC50 is 11 nM.

Turning to `CNCCn1cc(NC(=O)c2cnn3cccnc23)c(-c2cc(Oc3ccccc3)ccc2OC(F)F)n1` [Example 26, N-[3-[2-(difluoromethoxy)-5-phenoxy-phenyl]-1-[2 (methylamino)ethyl]pyrazol-4-yl]pyrazolo[1,5-a]pyrimidine-3-carboxamide], the values for the Ki in assay [1] and in assay [3] were 0.25 nM and 0.41 nM, respectively. Also, the IC50 in assay [2] worked out at 12 nM.

Broadly, the Ki is a dissociation constant, usually derived from enzyme kinetics or from competition with a known ligand.
